What was measured:
rat B1R = molecular target: T1, rat B1R (Rattus norvegicus, UniProt P97583); assay: Functional investigation on the bradykinin receptor 1 (B1R), FLIPR Ca2+ assay, rB1R cells; assay type: cell-based; conditions: % inhibition rat B1R at 10 μM; CHO K1 cells transfected with rat B1R; agonist Des-Arg9 bradykinin at EC80; read-out: % Inh. (rat B1R) 10 μM
T1 construct: expressed in transfected cells; host or cells: CHO K1 cells
T1 sequence (P97583 1-337): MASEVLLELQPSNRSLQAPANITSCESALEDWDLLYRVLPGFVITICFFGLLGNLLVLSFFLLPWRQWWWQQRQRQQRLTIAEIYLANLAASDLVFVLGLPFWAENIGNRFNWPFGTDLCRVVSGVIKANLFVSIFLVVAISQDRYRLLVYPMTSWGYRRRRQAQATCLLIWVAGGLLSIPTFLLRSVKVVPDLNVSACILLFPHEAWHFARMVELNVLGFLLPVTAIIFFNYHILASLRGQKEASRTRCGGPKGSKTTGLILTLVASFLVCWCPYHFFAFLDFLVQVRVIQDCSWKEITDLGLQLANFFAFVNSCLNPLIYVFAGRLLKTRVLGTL
Method: (§1) The agonistic or antagonistic action of substances can be quantified on the bradykinin receptor 1 (B1R) of the human and rat species with ectopically expressing cell lines (CHO K1 cells) and with the aid of a Ca^2+-sensitive dye (Fluo-4) using a fluorescent imaging plate reader (FLIPR). The indication in % activation is based on the Ca^2+ signal after addition of Lys-Des-Arg^9 bradykinin (0.5 nM) or Des-Arg^9 bradykinin (100 nM). Antagonists lead to a suppression of the Ca^2+ influx following administration of the agonist. The % inhibition in comparison with the maximum achievable inhibition is indicated.
(§2) The agonistic or antagonistic action of substances can be determined on the bradykinin 1 receptor (B1R) of the human and rat species with the following assay. According to this assay, the Ca^2+ inflow through the channel is quantified with the aid of a Ca^2+-sensitive dye (Fluo-4 type, Molecular Probes Europe BV, Leiden, The Netherlands) in a fluorescent imaging plate reader (FLIPR, Molecular Devices, Sunnyvale, USA).
(§3) Chinese hamster ovary cells (CHO K1 cells) which are stably transfected with the human B1R gene (hB1R cells) or the B1R gene of the rat (rB1R cells) are used. For functional investigations, these cells are plated-out onto black 96-well plates with a clear base (BD Biosciences, Heidelberg, Germany or Greiner, Frickenhausen, Germany) in a density of 20,000-35,000 cells/well. Overnight, the cells are incubated at 37° C. and 5% CO2 in culture medium (hB1R cells: Nutrient Mixture Ham's F12, Gibco Invitrogen GmbH, Karlsruhe, Germany or DMEM, Sigma-Aldrich, Taufkirchen, Germany; rB1R cells: D-MEM/F12, Gibco Invitrogen, Karlsruhe, Germany) with 10 vol. % FBS (foetal bovine serum, Gibco Invitrogen GmbH, Karlsruhe, Germany or PAN Biotech GmbH, Aidenbach, Germany). On the following day the cells are loaded with 2.13 μM Fluo-4 (Molecular Probes Europe BV, Leiden, The Netherlands) in HBSS buffer (Hank's buffered saline solution, Gibco Invitrogen GmbH, Karlsruhe, Germany) with 2.5 mM probenecid (Sigma-Aldrich, Taufkirchen, Germany) and 10 mM HEPES (Sigma-Aldrich, Taufkirchen, Germany) for 60 min at 37° C. The plates are the washed twice with HBSS buffer, and HBSS buffer which additionally contains 0.1% BSA (bovine serum albumin; Sigma-Aldrich, Taufkirchen, Germany), 5.6 mM glucose and 0.05% gelatine (Merck KGaA, Darmstadt, Germany) is added. After a further incubation of 20 minutes at room temperature, the plates are inserted into the FLIPR for Ca^2+ measurement. Alternatively they are washed with buffer A (15 mM HEPES, 80 mM NaCl, 5 mM KCl, 1.2 mM CaCl2, 0.7 mM MgSO4, 2 g/l glucose, 2.5 mM probenecid) and loaded with buffer A with added 2.5 μM Fluo-4 and 0.025% Pluronic F127 (Sigma-Aldrich, Taufkirchen, Germany). The cells are then washed twice with buffer A and incubated for 30 minutes with buffer A, which additionally contains 0.05% BSA and 0.05% gelatine, at room temperature and then used for Ca^2+ measurement in the FLIPR.
(§4) The Ca^2+-dependent fluorescence is measured here before and after addition of substances (λex=488 nm, λem=540 nm). The quantification is performed by measuring the highest fluorescence intensity (FC, fluorescence counts) over time.
(§5) The FLIPR protocol comprises two additions of substance. Test substances (10 μM) are first pipetted onto the cells and the Ca^2+ inflow is compared with the control (hB1R: Lys-Des-Arg^9 bradykinin>=50 nM; rB1R: Des-Arg^9 bradykinin 10 μM). The value in % activation based on the Ca^2+ signal after addition of Lys-Des-Arg^9 bradykinin (>=50 nM) or Des-Arg^9 bradykinin (10 μM) is obtained therefrom. After incubation for 10-20 minutes, Lys-Des-Arg^9 bradykinin (hB1R) or Des-Arg^9 bradykinin (rB1R) is applied in the EC80 concentration and the inflow of Ca^2+ is likewise determined. Antagonists lead to a suppression of the Ca^2+ inflow. The % inhibition in comparison with the maximum achievable inhibition is calculated. […]

human B1R = molecular target: T2, human B1R (Homo sapiens, UniProt P46663); assay: Functional investigation on the bradykinin receptor 1 (B1R), FLIPR Ca2+ assay, hB1R cells; assay type: cell-based; conditions: % inhibition human B1R at 10 μM; CHO K1 cells transfected with human B1R; agonist Lys-Des-Arg9 bradykinin at EC80; read-out: % Inh. (hum. B1R) 10 μM
T2 construct: expressed in transfected cells; host or cells: CHO K1 cells
T2 sequence (P46663 1-353): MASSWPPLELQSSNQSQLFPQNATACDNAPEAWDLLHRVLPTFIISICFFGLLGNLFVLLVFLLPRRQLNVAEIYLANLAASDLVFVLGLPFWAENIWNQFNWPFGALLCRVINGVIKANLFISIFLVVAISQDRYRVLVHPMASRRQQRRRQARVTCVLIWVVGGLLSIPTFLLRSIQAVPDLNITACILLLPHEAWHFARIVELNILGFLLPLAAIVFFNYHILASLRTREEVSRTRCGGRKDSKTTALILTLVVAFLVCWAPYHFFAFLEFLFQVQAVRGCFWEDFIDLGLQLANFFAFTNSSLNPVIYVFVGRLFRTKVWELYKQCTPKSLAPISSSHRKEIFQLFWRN
Method: as §1, §2, §3, §4, §5

Q: How did the inhibition at 10 µM (rat B1R) turn out when COc1cc(C)c(S(=O)(=O)N(CCOCC(=O)N2CCC3(CC2)CCC(c2cccs2)(N(C)C)CC3)C2CC2)c(C)c1 [CC-12, N-Cyclopropyl-N-[2-[2-(3-dimethylamino-3-thiophen-2-yl-9-azaspiro[5.5]undecan-9-yl)-2-oxo-ethoxy]-ethyl]-4-methoxy-2,6-dimethyl-benzenesulfonic acid amide] was run?
A: 97%

Q: What about the inhibition at 10 µM (human B1R) of the same compound?
A: 100%

Q: What does the source list for Cc1cc(S(=O)(=O)N2CCCCC2CCC(=O)N2CCC3(CC2)CCC(c2cccs2)(N(C)C)CC3)c(C)cc1Cl (stereo not shown) [CC-14, 3-[1-[(4-Chloro-2,5-dimethyl-phenyl)sulfonyl]-piperidin-2-yl]-1-(3-dimethylamino-3-thiophen-2-yl-9-azaspiro[5.5]undecan-9-yl)-propan-1-one]?
A: inhibition at 10 µM (rat B1R): 101%; inhibition at 10 µM (human B1R): 99%

Q: For COc1cc(C)c(S(=O)(=O)N(CCOCC(=O)N2CCC3(CC2)CCC(c2cccc(F)c2)(N2CCCC2)CC3)C2CC2)c(C)c1 [CC-04, N-Cyclopropyl-N-[2-[2-[3-(3-fluorophenyl)-3-pyrrolidin-1-yl-9-azaspiro[5.5]undecan-9-yl]-2-oxo-ethoxy]-ethyl]-4-methoxy-2,6-dimethyl-benzenesulfonic acid amide], which inhibition at 10 µM (rat B1R) is on record?
A: 98%

Q: What about the inhibition at 10 µM (human B1R) of the same compound?
A: 100%

Q: COc1cc(C)c(S(=O)(=O)N2CCCCC2CCCC(=O)N2CCC3(CC2)CCC(c2ccccc2)(N(C)C)CC3)c(C)c1 (stereo not shown) [Compound 8, 1-(9-(Dimethylamino)-9-phenyl-3-azaspiro[5.5]undecan-3-yl)-4-(1-(4-methoxy-2,6-dimethylphenylsulfonyl)piperidin-2-yl)butan-1-one] was tested. Which inhibition at 10 µM (rat B1R) did it give?
A: 98%

Q: What about the inhibition at 10 µM (human B1R) of the same compound?
A: 98%

Q: For COc1cc(C)c(S(=O)(=O)N2CCCC[C@H]2COCC(=O)N2CCC3(CC2)CCC(c2ccccc2)(N(C)C)CC3)c(C)c1 [Compound 2, 1-(9-(Dimethylamino)-9-phenyl-3-azaspiro[5.5]undecan-3-yl)-2-(((S)-1-(4-methoxy-2,6-dimethylphenylsulfonyl)piperidin-2-yl)methoxy)ethanone], which inhibition at 10 µM (rat B1R) is on record?
A: 94%

Q: And the inhibition at 10 µM (human B1R)?
A: 100%

Q: What does the source list for Cc1cccc(Cl)c1S(=O)(=O)N1CCCC[C@H]1COCC(=O)N1CCC2(CC1)CCC(c1ccccc1)(N(C)C)CC2 [Compound 6, 2-(((S)-1-(2-Chloro-6-methylphenylsulfonyl)piperidin-2-yl)methoxy)-1-(9-(dimethylamino)-9-phenyl-3-azaspiro[5.5]undecan-3-yl)ethanone]?
A: inhibition at 10 µM (rat B1R): 97%; inhibition at 10 µM (human B1R): 100%

Q: COc1cc(C)c(S(=O)(=O)N2CCCCC2CCCC(=O)N2CCC3(CC2)CCC(c2cccc(F)c2)(N2CCCC2)CC3)c(C)c1 (stereo not shown) [CC-02, 1-[3-(3-Fluorophenyl)-3-pyrrolidin-1-yl-9-azaspiro[5.5]undecan-9-yl]-4-[1-[(4-methoxy-2,6-dimethyl-phenyl)sulfonyl]-pipereridin-2-yl]-butan-1-one] was tested. Which inhibition at 10 µM (rat B1R) did it give?
A: 98%

Q: What about the inhibition at 10 µM (human B1R) of the same compound?
A: 100%

Q: For COc1cc(C)c(S(=O)(=O)N2C=CNC(=O)[C@H]2CC(=O)N2CCC3(CC2)CCC(c2ccccc2)(N(C)C)CC3)c(C)c1 [Compound 10, (3R)-3-(2-(9-(Dimethylamino)-9-phenyl-3-azaspiro[5.5]undecan-3-yl)-2-oxoethyl)-4-(4-methoxy-2,6-dimethylphenylsulfonyl)-3,4-dihydropyrazin-2(1H)-one], which inhibition at 10 µM (rat B1R) is on record?
A: 92%

Q: And the inhibition at 10 µM (human B1R)?
A: 100%

Q: What does the source list for COc1cc(C)c(S(=O)(=O)N2CCCC[C@H]2COCC(=O)N2CCC3(CC2)CCC(c2cccc(F)c2)(N(C)C)CC3)c(C)c1 [Compound 11, 1-(9-(Dimethylamino)-9-(3-fluorophenyl)-3-azaspiro[5.5]undecan-3-yl)-2-(((S)-1-(4-methoxy-2,6-dimethylphenylsulfonyl)piperidin-2-yl)methoxy)ethanone]?
A: inhibition at 10 µM (rat B1R): 104%; inhibition at 10 µM (human B1R): 100%

Q: Which inhibition at 10 µM (rat B1R) does the source give for O=C(CC(NS(=O)(=O)c1ccc2ccccc2c1)c1ccccc1)N1CCC2(CC1)CCC(c1cccc(F)c1)(N1CCCC1)CC2 (stereo not shown) [CC-08, N-[3-[3-(3-Fluorophenyl)-3-pyrrolidin-1-yl-9-azaspiro[5.5]undecan-9-yl]-3-oxo-1-phenyl-propyl]-naphthalene-2-sulfonic acid amide] here?
A: 96%

Q: What about the inhibition at 10 µM (human B1R) of the same compound?
A: 81%

Q: Which results are given for COc1cc(C)c(S(=O)(=O)N2CCCCC2COCC(=O)N2CCC3(CC2)CCC(c2cccs2)(N(C)C)CC3)c(C)c1 (stereo not shown) [CC-11, 1-(3-Dimethylamino-3-thiophen-2-yl-9-azaspiro[5.5]undecan-9-yl)-2-[[1-[(4-rnethoxy-2,6-dimethyl-phenyl)sulfonyl]-piperidin-2-yl]-methoxy]-ethanone]?
A: inhibition at 10 µM (rat B1R): 98%; inhibition at 10 µM (human B1R): 100%

Q: For Cc1cccc(Cl)c1S(=O)(=O)N(CCOCC(=O)N1CCC2(CC1)CCC(c1cccc(F)c1)(N1CCCC1)CC2)C1CC1 [CC-06, 2-Chloro-N-cyclopropyl-N-[2-[2-[3-(3-fluorophenyl)-3-pyrrolidin-1-yl-9-azaspiro[5.5]undecan-9-yl]-2-oxo-ethoxy]-ethyl]-6-methyl-benzenesulfonic acid amide], which inhibition at 10 µM (rat B1R) is on record?
A: 97%

Q: And the inhibition at 10 µM (human B1R)?
A: 100%

Q: For Cc1cccc(Cl)c1S(=O)(=O)N1CCCCC1COCC(=O)N1CCC2(CC1)CCC(c1cccc(F)c1)(N1CCCC1)CC2 (stereo not shown) [CC-05, 2-[[1-[(2-Chloro-6-methyl-phenyl)sulfonyl]-piperidin-2-yl]-methoxy]-1-[3-(3-fluorophenyl)-3-pyrrolidin-1-yl-9-azaspiro[5.5]undecan-9-yl]-ethanone], which inhibition at 10 µM (rat B1R) is on record?
A: 98%

Q: What about the inhibition at 10 µM (human B1R) of the same compound?
A: 100%

Q: With Cc1cc(S(=O)(=O)N2CCCCC2CCC(=O)N2CCC3(CC2)CCC(c2ccccc2)(N(C)C)CC3)c(C)cc1Cl (stereo not shown) [Compound 7, 3-(1-(4-Chloro-2,5-dimethylphenylsulfonyl)piperidin-2-yl)-1-(9-(dimethylamino)-9-phenyl-3-azaspiro[5.5]undecan-3-yl)propan-1-one] as the compound, how does the inhibition at 10 µM (rat B1R) read?
A: 97%

Q: What about the inhibition at 10 µM (human B1R) of the same compound?
A: 98%
